Measurements published in publication PMC9343791, “Evaluation of Herb–Drug Interaction Between Danshen and Rivaroxaban in Rat and Human Liver Microsomes” (Frontiers in Pharmacology, 2022).

What was measured:
CYP2J3 = target: T1, CYP2J3 (Rattus norvegicus, UniProt P51590); assay: astemizole probe-substrate inhibition in pooled rat liver microsomes, LC-MS/MS; assay type: biochemical
T1 sequence (P51590 1-502): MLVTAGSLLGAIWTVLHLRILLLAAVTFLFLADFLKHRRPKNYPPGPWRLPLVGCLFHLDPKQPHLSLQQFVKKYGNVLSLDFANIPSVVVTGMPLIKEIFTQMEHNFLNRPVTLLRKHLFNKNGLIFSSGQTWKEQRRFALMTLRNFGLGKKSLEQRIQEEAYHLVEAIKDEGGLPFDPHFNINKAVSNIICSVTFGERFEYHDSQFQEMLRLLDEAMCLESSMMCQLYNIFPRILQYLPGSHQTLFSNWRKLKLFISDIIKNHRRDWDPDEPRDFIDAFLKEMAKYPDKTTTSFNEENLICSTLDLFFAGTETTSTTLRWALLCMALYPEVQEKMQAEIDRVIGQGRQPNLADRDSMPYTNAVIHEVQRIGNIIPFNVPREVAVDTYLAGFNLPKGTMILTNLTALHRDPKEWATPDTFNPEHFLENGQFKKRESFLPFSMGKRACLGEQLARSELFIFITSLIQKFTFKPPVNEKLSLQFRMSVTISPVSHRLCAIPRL

CYP3A2 = target: T2, CYP3A2 (Rattus norvegicus, UniProt P05183); assay: midazolam probe-substrate inhibition in pooled rat liver microsomes, LC-MS/MS; assay type: biochemical
T2 sequence (P05183 1-504): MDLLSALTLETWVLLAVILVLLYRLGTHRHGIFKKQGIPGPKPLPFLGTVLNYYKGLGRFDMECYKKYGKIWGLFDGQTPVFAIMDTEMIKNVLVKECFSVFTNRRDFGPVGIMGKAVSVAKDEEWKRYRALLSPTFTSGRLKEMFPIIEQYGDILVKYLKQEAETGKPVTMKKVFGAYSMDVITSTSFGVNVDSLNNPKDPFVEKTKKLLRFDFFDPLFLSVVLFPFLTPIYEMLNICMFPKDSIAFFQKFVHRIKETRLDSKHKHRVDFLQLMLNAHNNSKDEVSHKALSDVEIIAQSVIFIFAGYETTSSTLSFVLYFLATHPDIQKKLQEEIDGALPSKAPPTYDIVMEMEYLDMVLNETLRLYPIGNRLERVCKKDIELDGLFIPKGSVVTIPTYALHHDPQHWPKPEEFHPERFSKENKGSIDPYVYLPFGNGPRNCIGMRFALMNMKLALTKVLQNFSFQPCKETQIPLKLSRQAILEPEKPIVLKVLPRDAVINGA

Cc1cccc2c3c(ccc12)C1=C(C(=O)C3=O)[C@@H](C)CO1 [dihydrotanshinone I]
IC50 (CYP2J3): 6.39 µM
IC50 (CYP3A2): 13.8 µM
